Data on eleven compounds can be found in US12071425B2 (Genentech, Inc., priority 2018, dated 2024).

SMILES strings stand for the structures. Counter-ions that a name gives are not always drawn.

kinase domain of IRE1 alpha (His-tagged kinase dead construct KR, AA G547-L977, D688N), sequence (O75460 547-977 D688N): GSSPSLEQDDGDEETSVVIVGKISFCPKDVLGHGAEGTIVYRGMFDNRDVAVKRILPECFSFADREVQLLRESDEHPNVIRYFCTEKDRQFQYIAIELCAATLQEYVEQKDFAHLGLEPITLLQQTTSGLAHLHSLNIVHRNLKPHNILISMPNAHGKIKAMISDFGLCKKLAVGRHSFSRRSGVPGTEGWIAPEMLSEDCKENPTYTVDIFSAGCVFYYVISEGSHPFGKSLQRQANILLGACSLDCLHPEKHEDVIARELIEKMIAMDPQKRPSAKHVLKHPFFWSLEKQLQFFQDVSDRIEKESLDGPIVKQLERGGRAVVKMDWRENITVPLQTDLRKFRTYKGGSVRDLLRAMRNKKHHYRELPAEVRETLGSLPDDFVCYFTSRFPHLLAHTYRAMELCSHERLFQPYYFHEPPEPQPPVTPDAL

In the first series the target is kinase domain of IRE1 alpha (His-tagged kinase dead construct KR, AA G547-L977, D688N) (Homo sapiens (Human), UniProt O75460, D688N). The series can be described thus: IRE1α TR-FRET competition binding assay. The settings on record: competition with Kinase Tracer 236, 0.1 μM; one hour at room temperature. An outline of the steps:
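Compound displacement of an ATP-site fluorescent tracer (0.1 μM final) measured by TR-FRET after 1 h at room temperature. Protein, a His-tagged D688N kinase/RNase construct from Sf9 cells (0.006 μM final), was pre-bound 1 h at 4° C to Eu anti-His antibody (0.002 μM) in pH 7.5 HEPES buffer.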
(In general: In TR-FRET formats the signal depends on donor and acceptor labels being close together.)
A word on the IC50: it is the concentration that gives 50% inhibition. The low end stands for greater potency in that assay, the high end for weaker potency in that assay. Regarding `O=S(=O)(Cc1ccccc1)Nc1ccc(Oc2ncccc2-c2ccnc(N[C@H]3CCCNC3)n2)c(F)c1` [Compound 159, (S)-N-(3-fluoro-4-((3-(2-(piperidin-3-ylamino)pyrimidin-4-yl)pyridin-2-yl)oxy)phenyl)-1-phenylmethanesulfonamide], the IC50 came out at 11 nM.

As to `O=S(=O)(Cc1cc(F)ccc1F)Nc1c(F)cc(Oc2ncccc2-c2ccnc(N[C@@H]3CNC[C@@H](F)C3)n2)c(F)c1F` [Compound 378, 1-(2,5-Difluorophenyl)-N-(2,3,6-trifluoro-4-((3-(2-(((3S,5S)-5-fluoropiperidin-3-yl)amino)pyrimidin-4-yl)pyridin-2-yl)oxy)phenyl)methanesulfonamide], the IC50 was 1.1 nM.

In turn, `Cc1cc(NS(=O)(=O)c2ccccc2Cl)cc(F)c1Oc1ncccc1-c1ccnc(N[C@H]2CC[C@H](N)CC2)n1` [Compound 102, N-[4-[[3-[2-[(4-aminocyclohexyl)amino]pyrimidin-4-yl]-2-pyridyl]oxy]-3-fluoro-5-methyl-phenyl]-2-chloro-benzenesulfonamide hydrochloride] gave a half-maximal inhibitory concentration (IC50) of 10 nM. The same measure, in the same setting: for `CN=S(=O)(Cc1ccccc1)Nc1ccc(Oc2ncccc2-c2ccnc(N[C@H]3CCCNC3)n2)c(F)c1F` (stereo partly drawn) [Compound 274, N-(2,3-difluoro-4-((3-(2-(((S)-piperidin-3-yl)amino)pyrimidin-4-yl)pyridin-2-yl)oxy)phenyl)-N′-methyl-1-phenylmethanesulfonimidamide] the value was 400 nM; for `Cc1cc(Oc2ncccc2-c2ccnc(N[C@@H]3CNC[C@@H](F)C3)n2)c(F)c(F)c1NS(=O)(=O)Cc1ccccc1` [Compound 280, N-(2,3-Difluoro-4-((3-(2-(((3S,5S)-5-fluoropiperidin-3-yl)amino)pyrimidin-4-yl)pyridin-2-yl)oxy)-6-methylphenyl)-1-phenylmethanesulfonamide], 0.31 nM.

Turning to `Cn1cc(S(=O)(=O)Nc2ccc(Oc3ncccc3-c3ccnc(N[C@H]4CCCNC4)n3)c(F)c2F)cn1` [Compound 222, (S)-N-(2,3-difluoro-4-((3-(2-(piperidin-3-ylamino)pyrimidin-4-yl)pyridin-2-yl)oxy)phenyl)-1-methyl-1H-pyrazole-4-sulfonamide], the IC50 was 240 nM. Same read-out and setting: for `CC(F)C1CNCC(Nc2nccc(-c3cccnc3Oc3cc(F)c(NS(=O)(=O)Cc4ccccc4)c(F)c3F)n2)C1` (single isomer, unassigned) [Compound 346, 1-Phenyl-N-(2,3,6-trifluoro-4-((3-(2-((5-(1-fluoroethyl)piperidin-3-yl)amino)pyrimidin-4-yl)pyridin-2-yl)oxy)phenyl)methanesulfonamide] the value was 72 nM.

The compound `Cc1cc(NS(=O)(=O)C2CCCC2)cc(F)c1Oc1ncccc1-c1ccnc(N[C@H]2CCCNC2)n1` [Compound 116, (S)-N-(3-fluoro-5-methyl-4-((3-(2-(piperidin-3-ylamino)pyrimidin-4-yl)pyridin-2-yl)oxy)phenyl)cyclopentanesulfonamide hydrochloride] returned an IC50 of 23 nM. This IC50 lies about 3.1-fold lower than the previous one.

On to `Cc1ccc(C(=O)NS(=O)(=O)c2ccccc2Cl)cc1Oc1ncccc1-c1ccnc(N[C@H]2CCCNC2)n1` [Compound 103, (S)-N-((2-chlorophenyl)sulfonyl)-4-methyl-3-((3-(2-(piperidin-3-ylamino)pyrimidin-4-yl)pyridin-2-yl)oxy)benzamide], for which the concentration for half-maximal inhibition (IC50) was determined as 30 nM. Still for that read-out and setting: the value for `CCC1CCN(c2ccc(Oc3ncccc3-c3ccnc(N[C@H]4CCCNC4)n3)c(F)c2F)C1=O` (single isomer, unassigned) [Compound 248] was 45 nM.

For the next series, the system named is cells.
Test: not given
The settings on record: high levels of 4μ8C; cited from earlier work.
Turning to `Cc1cc(=O)oc2c(C=O)c(O)ccc12` [Compound 4μ8C], the toxicity in cells entry is “no measurable toxicity”.
